Experimental data reported in publication PMC4501119, “Cholestenoic acid, an endogenous cholesterol metabolite, is a potent γ-secretase modulator” (Molecular Neurodegeneration, 2015).
Several values for one entry are separate records, joined by “and”; a condition that tells them apart may be missing. Equal entries are not always repeated.

Key:
[1] = molecular target: T1, γ-secretase (Homo sapiens, UniProt P49768); test: In vitro γ-secretase (broken cell) assay, membranes of H4 neuroglioma cells overexpressing APP695wt, Aβ ELISA; assay type: biochemical; conditions: vs DMSO control, 2 h incubation
T1 construct: The membrane derived from the H4 neuroglioma cells overexpressing APP695wt were prepared by carbonate extraction; endogenous in cells; host or cells: H4 neuroglioma cells overexpressing APP695wt (membranes, carbonate extraction)
Procedure: Broken cell assays were performed with slight modifications from the previous studies. The membrane derived from the H4 neuroglioma cells overexpressing APP695wt were prepared by carbonate extraction and incubated at 37 °C for 2 h with CA at various concentrations. Aβ levels were quantified by sandwich ELISAs. For Aβ and AICD spectra, the recombinant C100Flag proteins were overexpressed and purified from Escherichia coli BL21 using a HiTrap Q-column (GE Life Science, Little Chalfont, U.K.). The membrane containing γ-secretase was isolated from the CHO S-1 cell line using sodium carbonate (100 mM, pH 11.0). For the in vitro γ-secretase assay, C100Flag recombinant protein at 25 μM was incubated with the membrane (100 μg/mL) in the presence of CA (20 μM) and DMSO in 150 mM sodium citrate buffer (pH 6.8) containing complete protease inhibitor (Roche, Indianapolis, IN) for 2 h at 37 °C.
(§1) Monoclonal antibodies to Aβ were generated by the Mayo Clinic Immunology Core facilities (Jacksonville, FL, USA). Ab5 recognizes an epitope in the amino terminus of Aβ (Aβ1-16), recognizes both monomeric and aggregated Aβ, and is human specific. […] Ab 2.1.3 was raised against Aβ35-42 and is specific for Aβx-42. […] For cell-based screens, Aβ was captured from conditioned medium with either Ab5, Ab38, Ab13.1.1, or Ab2.1.3 (coated at 10-50 μg/ml in EC buffer: 5 mM NaH2PO4-H2O, 20 mM Na2HPO4, 400 mM NaCl, 2.5 mM EDTA-full name, 151.5 μM BSA, 813 μM CHAPS, and 7.7 mM NaN3) on Immulon 4HBX Flat-Bottom Microfilter 96-well plates (Thermo Scientific, Waltham, MA, USA). Total Aβ level was determined by capture with Ab5 and detected with horseradish peroxidase (HRP)-conjugated 4G8 (a monoclonal antibody against Aβ17-24; Covance, Waltham, MA, USA) with the other Aβ peptides detected with HRP-conjugated Ab5. For the cell-free assay and measuring mouse endogenous Aβ, HRP-conjugated 4G8 was used as the secondary detection antibody. Aβ standards (Bachem, King of Prussia, PA, USA) were prepared by dissolving in hexafluoroisopropanol (HFIP) at 1 mg/ml with sonication, dried under nitrogen, resuspended at 2 mg/ml HFIP, sonicated again and dried under nitrogen. The resulting Aβ was resuspended in 0.01 % ammonium hydroxide, portioned into aliquots in EC buffer, and frozen at −80 °C. Following these steps, the Aβ is monomeric, as determined by size-exclusion chromatography.

[2] = system: endogenous mouse Aβ (mAβ) in primary neuron-glia cultures; test: Primary mixed neuron-glia culture, endogenous mouse Aβ ELISA; assay type: cell-based
Procedure: Primary mixed neuron-glia cultures were prepared from postnatal day 0 (P0) C3HBL/6 mouse brains (Harlan Labs). Cerebral cortices were dissected from P0 mouse brains and were dissociated in 2 mg/ml papain (Worthington) and 50 μg/mL DNAse I (Sigma) at 37 °C for 20 min. They were then washed three times in sterile Hank’s balanced salt solution (HBSS) to inactivate the papain and switched to 5 % fetal bovine serume (HyClone) in Neurobasal-A growth media (Gibco), which includes 0.5 mM L-glutamine (Gibco), 0.5 mM GlutaMax (Life Technologies), 0.01 % antibiotic-antimycotic (Gibco), and 0.02 % SM1 supplement (Stemcell). The tissue mixture was then triturated three times using a 5 mL pipette followed by a Pasteur pipette, and strained through a 70 μm cell strainer. The cell mixture was then centrifuged at 200xg for 3 min, and re-suspended in fresh Neurobasal-A media. They were then plated onto poly-D-lysine coated 96well plates at 100,000 cells/well. Cells were maintained in the Neurobasal-A growth media mentioned above without fetal bovine serum (FBS) at 37 °C in a humidified 5 % CO2 chamber.
as §1

[3] = Tolerability of IP doses in mice; assay type: in vivo, mouse; conditions: up to the highest dose 100 mg/kg
Procedure: 25(R)-CA powder was initially dissolved in DMSO (<4.5 % in the final mixture) and then combined with polyethylene glycol (15)-hydroxystearate (Solutol), ethanol, and water at a ratio of (15:10:75). One molar equivalent of sodium hydroxide was added to the mixture. We performed CA intraperitoneal (IP) injections to wild-type mice (C57BL/6 or CF-1). The mice were injected with 25(R)-CA on the right side of the abdomen. The injections have been performed with various time points (30 min, 1 h, 2 h, and 3 h) and with multiple doses (30 mg per kg (mg/kg), 60 mg/kg, 75 mg/kg and 100 mg/kg). The number of each cohort is 6–8. We used 30 mg/kg of CA for the time-course experiments, and for the dose–response experiments the end-point was set at 30 min. The brains and serum are harvested and frozen for brain Aβ extraction.

[4] = system: Aβ42 in CHO-2B7 cells (CHO cells stably overexpressing APP695); test: Cell-based Aβ sandwich ELISA of conditioned media from CHO-2B7 cells treated 16 h; set-up: species or system Chinese hamster
Procedure: Chinese hamster ovary (CHO) cells stably overexpressing APP695 (CHO-2B7 cells) were grown in Ham’s F-12 medium (Life Technologies) supplemented with 10 % fetal bovine serum and 100 units/ml of penicillin and 100 μg/ml streptomycin. Cells were grown at 37 °C in a humidified atmosphere containing 5 % CO2 in tissue culture plates (Costar). The cells were harvested at confluence and then utilized for biochemical analyses. Compounds were dissolved in dimethyl sulfoxide (DMSO) and screened in CHO-2B7 cells. The cells were incubated for 16 h in the presence of the compound diluted into OptiMEM-reduced serum medium (Life Technologies, Carlsbad, CA, USA) containing 1 % fetal bovine serum.
Monoclonal antibodies to Aβ were generated by the Mayo Clinic Immunology Core facilities (Jacksonville, FL, USA). Ab5 recognizes an epitope in the amino terminus of Aβ (Aβ1-16), recognizes both monomeric and aggregated Aβ, and is human specific. […] Ab 2.1.3 was raised against Aβ35-42 and is specific for Aβx-42. […] Total Aβ level was determined by capture with Ab5 and detected with horseradish peroxidase (HRP)-conjugated 4G8 (a monoclonal antibody against Aβ17-24; Covance, Waltham, MA, USA) with the other Aβ peptides detected with HRP-conjugated Ab5. For the cell-free assay and measuring mouse endogenous Aβ, HRP-conjugated 4G8 was used as the secondary detection antibody. Aβ standards (Bachem, King of Prussia, PA, USA) were prepared by dissolving in hexafluoroisopropanol (HFIP) at 1 mg/ml with sonication, dried under nitrogen, resuspended at 2 mg/ml HFIP, sonicated again and dried under nitrogen. The resulting Aβ was resuspended in 0.01 % ammonium hydroxide, portioned into aliquots in EC buffer, and frozen at −80 °C.

[5] = CHO-2B7 cells, dose response, ELISA

Q: Which results are given for `CC(CCC[C@@H](C)C(=O)O)[C@H]1CCC2C3CC=C4C[C@@H](O)CC[C@]4(C)C3CC[C@@]21C` (stereo partly drawn) [Cmpd 2a, 25(R)-cholestenoic acid]?
A: change in total Aβ levels [1]: without any significant changes; decrease of Aβ42 production ([1]; CA at 150 μM, listed as CA): 50% and 51%; decrease of mAβ42 production ([2]; 3 μM): ~ 60%; Aβ42:Aβ38 ratio ([2]; 3 μM and 10 μM): significant decrease; Aβ38 production ([2]; 10 μM): increased; decrease of mAβ42 production ([2]; 10 μM): ~ 75%; tolerability [3]: well tolerated; Aβ38 level [4, 5]: increased; total Aβ level [4, 5]: without alterations; EC50 ([4]; Cricetulus griseus, CHO-2B7, 16 h, lowering Aβ42, CHO-2B7 cells, 16 h, ELISA): ~250 nM; EC90 ([4]; Cricetulus griseus, decreasing Aβ42, CHO-2B7 cells): 3000 nM
